Laboratory results as given in patent US12635683B2, “Preservation of natural and bioengineered tissues and methods of storing and transport” (LifeNet Health, priority 2021, dated 2026).

Tested on: Epiderm construct
Experiment: Construct viability after vitrification and rewarming (metabolic activity)
Format: cell-based, human
Details: αT and QVD added together to culture medium before and after vitrification
Description: Tissue Culture: Human epidermal models were obtained from commercial sources and maintained according to their specifications. All constructs were incubated in appropriate media for 24 hours under physiological tissue culture conditions before initiating experiments. Fresh controls were used in each experiment and experimental treatment groups were assessed over 4-5 days post-rewarming.
Vitrification Methods: The constructs were gradually infiltrated with precooled vitrification formulations at 4° C. in six steps with 0%, 12.5%, 25%, 50%, 75% and 100% of each formulation to achieve a final cryoprotectant concentration. After rewarming, the vitrification solution was removed in seven sequential steps at 4° C. into culture medium as previously described (see Song et al., Vitreous cryopreservation maintains the function of vascular grafts, Nature Biotechnology, 8(3):296-9, Epub 2000/03/04, doi:10.1038/73737, PubMed PMID: 10700144 (2000); and Song et al., Vitreous Preservation of Rabbit Articular Cartilage, Cell Preservation Technology, 2 (1); 67-74 (2004)).
Once loaded with vitrification solution the construct can be cooled to storage temperature and rewarmed using several methods. (1) The constructs were placed in glass scintillation vials (Diam.×H, 25 mm×60 mm) containing 1.5 mL of pre-cooled vitrification solution with 0.3 mL solution inside the well insert. Then 1 mL of 2-methylbutane (isopentane, freezing point: −160° C., density: 0.62) was placed on top of the vitrification solution in the vial and 0.2 mL inside the well insert at 4° C. to prevent direct air contact. Samples were cooled rapidly (approximately 45° C./minute) to −100° C. by placing the samples in a pre-cooled bath containing isopentane in a −135° C. mechanical storage freezer. Upon achieving −100° C. the specimens were removed from the bath and stored at −135° C. in the mechanical storage freezer, which results in slow cooling (3° C./minute) to −135° C. The samples were held at −135° C. for a minimum of 24 hours. The constructs were rewarmed in two stages, first, slow warming to −100° C. (approximately 30° C./minute) at the top of the mechanical storage freezer and then rapidly warmed to either 0° C. or ±−10° C. approximately 225° C./min) in a 30% ME2SO bath at room temperature. (2) The constructs in inserts are placed within the well of a deep well plate. There is 0.6 mL vitrification solution in the well and 0.2 mL solution in the insert. […]
Resazurin Assay: Was used to measure the metabolic activity and has the advantage of being non-toxic so constructs can be assessed before and several times after treatment. […]

For `CC(C)[C@H](NC(=O)c1ccc2ccccc2n1)C(=O)N[C@@H](CC(=O)O)C(=O)COc1c(F)cccc1F` [Q-VD-OPH, quinoline-Val-Asp-difluorophenoxymethyl ketone], the “Effect of additive in culture medium on construct viability” value (“Effect of additive in culture medium” below) was “improved viability” and the “Effect of additive in culture medium” value (listed as QVD) was “significant improvement”.
With `Cc1c(C)c2c(c(C)c1O)CC[C@@](C)(CCC[C@H](C)CCC[C@H](C)CCCC(C)C)O2` [α-tocopherol] the “Effect of additive in culture medium” value was “improved viability” and the “Effect of additive in culture medium” value (listed as αT) was “significant improvement”.
